Where a SMILES comes first, the peptide text is derived from it.
Columns and labels:
GFP-Cdc14 [1] = molecular target: GFP-Cdc14 (Saccharomyces cerevisiae, UniProt Q00684); assay: biochemical; assay type: binding
Cdc14 = Cdc14 (Saccharomyces cerevisiae, UniProt Q00684); assay type: biochemical; conditions: for Dephosphorylation of pTP phosphopeptide by Cdc14: 1 µM Cdc14 (Supplementary Fig. 9d)
Cdc14 with Net1^1-600 = assay type: biochemical, Saccharomyces cerevisiae; conditions: 200 nM Net1^1-600; two independent experiments (Fig. 4c)
GFP-Cdc14 [2] = molecular target: T1, GFP-Cdc14 (S. cerevisiae, UniProt Q00684 1-551); assay: MST
T1 sequence (looked up): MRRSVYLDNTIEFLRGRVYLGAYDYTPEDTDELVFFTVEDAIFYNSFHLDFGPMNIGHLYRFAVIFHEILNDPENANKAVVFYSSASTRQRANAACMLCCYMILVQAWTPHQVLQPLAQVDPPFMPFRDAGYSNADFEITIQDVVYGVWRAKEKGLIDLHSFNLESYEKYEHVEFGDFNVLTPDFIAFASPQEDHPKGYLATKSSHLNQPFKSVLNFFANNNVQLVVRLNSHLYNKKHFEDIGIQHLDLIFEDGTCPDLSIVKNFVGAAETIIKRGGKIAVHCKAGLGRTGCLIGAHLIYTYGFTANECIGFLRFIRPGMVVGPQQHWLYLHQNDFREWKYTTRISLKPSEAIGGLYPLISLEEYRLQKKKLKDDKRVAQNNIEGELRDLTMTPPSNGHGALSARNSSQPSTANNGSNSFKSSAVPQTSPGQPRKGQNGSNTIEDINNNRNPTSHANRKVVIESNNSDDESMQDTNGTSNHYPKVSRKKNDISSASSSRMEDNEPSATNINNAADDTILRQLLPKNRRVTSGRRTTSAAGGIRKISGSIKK

His6-Net1^1-600 = molecular target: T2, His6-Net1^1-600 (S. cerevisiae, UniProt P47035 1-600); assay: pull-down
T2 sequence (looked up): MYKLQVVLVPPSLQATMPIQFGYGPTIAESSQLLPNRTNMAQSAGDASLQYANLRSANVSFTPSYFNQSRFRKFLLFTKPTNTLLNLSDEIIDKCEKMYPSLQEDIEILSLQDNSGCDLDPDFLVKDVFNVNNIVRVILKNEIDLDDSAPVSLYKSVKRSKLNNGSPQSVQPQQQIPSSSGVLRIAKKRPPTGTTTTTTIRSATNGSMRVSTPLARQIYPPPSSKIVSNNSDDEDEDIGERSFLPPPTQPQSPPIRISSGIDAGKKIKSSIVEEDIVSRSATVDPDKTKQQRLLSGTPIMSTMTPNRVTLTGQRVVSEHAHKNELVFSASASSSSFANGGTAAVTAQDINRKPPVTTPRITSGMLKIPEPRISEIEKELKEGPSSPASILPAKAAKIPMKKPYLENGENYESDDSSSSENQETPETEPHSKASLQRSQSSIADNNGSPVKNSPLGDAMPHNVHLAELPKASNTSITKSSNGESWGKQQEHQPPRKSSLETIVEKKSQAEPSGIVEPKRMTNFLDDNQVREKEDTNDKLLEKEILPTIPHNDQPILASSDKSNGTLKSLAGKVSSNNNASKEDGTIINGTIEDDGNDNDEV

Molecule: CC(C)C[C@H](NC(=O)[C@H](CC(C)C)NC(=O)[C@@H]1CCCN1C(=O)[C@H](C)NC(=O)[C@H](CC(N)=O)NC(=O)[C@H](CCCCN)NC(=O)[C@H](Cc1ccccc1)NC(=O)[C@H](CO)NC(=O)[C@H](CCCCN)NC(=O)[C@@H](NC(=O)[C@@H](NC(=O)[C@H](CO)NC(=O)[C@@H]1CCCN1)[C@@H](C)O)[C@@H](C)O)C(=O)N[C@@H](C)C(=O)N1CCC[C@H]1C(=O)N1CCC[C@H]1C(=O)O [Sic1 peptide] (H-PSTTKSFKNAPLLAPP-OH)
- Kd (GFP-Cdc14 [1]): 32.2 µM

Molecule: FTDVAAGNYPATPPPH-TSPLGpTPLAAFNGLTSPQRSPFPKSSVK [AxG…pTP control peptide]
- Dephosphorylation of pTP phosphopeptide by Cdc14 (Cdc14): almost undetectable

Molecule: FTDVPALNYPATPPPH-TSPLGpSPLAAFNGLTSPQRSPFPKSSVK [PxL…pSPxAA peptide]
- Behaviour at higher substrate concentrations (Cdc14; pSPxAA phosphopeptide, 100 nM Cdc14, above 50 μM (Fig. 6a)): apparent substrate inhibition

Molecule: FTDVPALNYPATPPPHTSPLGpTPLAAFNGLTSPQRSPFP-KSSVK [PxL…pTP peptide]
- Dephosphorylation of pTP phosphopeptide by Cdc14 (Cdc14): substantially enhanced

Molecule: YVPAPAPTTPLNFDHP [scrambled peptide]
- Effect of peptide on inhibition of Cdc14 p-NPP hydrolysis by Net1 (Cdc14 with Net1^1-600): observed to a much lesser extent

B1: Cbk1-derived PxL motif peptide (16-mer) (peptide)
peptide: FTDVPALNYPATPPPH
- Kd (GFP-Cdc14 [2]): 6.1 µM

B2: Kar9-derived PxL motif peptide (peptide)
chain: Ac-KGKLILSSVPPLPYDE-NH2
- Kd (GFP-Cdc14 [2]): 6 µM

B3: GST-Cdc14 (enzyme, S. cerevisiae, UniProt Q00684 1-551, looked up)
chain: T1 sequence (looked up)
- binding result (His6-Net1^1-600): binds
